Results as given in patent US10399987B2, “TGF beta receptor antagonists” (BRISTOL-MYERS SQUIBB COMPANY, priority 2015, dated 2019).

Molecular target: HIS-TGFβR1 T204D (Homo sapiens (Human), UniProt P36897, T204D)
Assay: TGFβR1 HIS T204D HTRF assay (labeled small molecule probe, anti-HIS detection antibody)
Type: binding
Details: 1 nM HIS-TGFβR1 T204D, probe at Kd, 1 hour at room temperature, eleven concentrations

Chain of HIS-TGFβR1 T204D (P36897 34-503 T204D): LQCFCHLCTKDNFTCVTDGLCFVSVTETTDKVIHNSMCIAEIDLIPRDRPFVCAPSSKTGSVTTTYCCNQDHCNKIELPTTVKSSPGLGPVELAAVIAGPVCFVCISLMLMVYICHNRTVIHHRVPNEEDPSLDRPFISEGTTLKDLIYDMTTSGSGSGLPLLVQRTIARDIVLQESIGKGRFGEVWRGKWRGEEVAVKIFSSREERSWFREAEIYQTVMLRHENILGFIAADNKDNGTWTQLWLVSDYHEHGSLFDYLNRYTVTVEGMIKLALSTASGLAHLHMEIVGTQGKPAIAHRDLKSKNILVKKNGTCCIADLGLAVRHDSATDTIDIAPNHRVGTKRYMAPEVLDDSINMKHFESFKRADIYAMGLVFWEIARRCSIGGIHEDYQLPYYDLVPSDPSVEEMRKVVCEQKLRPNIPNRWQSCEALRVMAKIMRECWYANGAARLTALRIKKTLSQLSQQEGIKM

## COC(=O)Nc1cc(Nc2nc(-c3cccc(C(F)(F)F)n3)nc3[nH]ccc23)ccn1 [Example 30, methyl (4-((2-(6-(trifluoromethyl)pyridin-2-yl)-7H-pyrrolo[2,3-d]pyrimidin-4-yl)amino)pyridin-2-yl)carbamate]
  IC50: 2.5 nM

## CC(=O)Nc1nccc(Nc2nc(-c3cccc(C(F)F)n3)nc3[nH]ccc23)c1F [Example 31, N-(4-((2-(6-(difluoromethyl)pyridin-2-yl)-7H-pyrrolo[2,3-d]pyrimidin-4-yl)amino)-3-fluoropyridin-2-yl)acetamide]
  IC50: 0.37 nM

## O=C(CN1CCOCC1)Nc1cc(Nc2nc(-c3cccc(C(F)(F)F)n3)nc3[nH]ccc23)ccn1 [Example 32, 2-morpholino-N-(4-((2-(6-(trifluoromethyl)pyridin-2-yl)-7H-pyrrol[2,3-d]pyrimidin-4-yl)amino)pyridin-2-yl)acetamide]
  IC50: 0.77 nM

## Cc1cccc(-c2nc(Nc3ccncc3F)c3c(C)c[nH]c3n2)n1 [Example 33, N-(3-fluoropyridin-4-yl)-5-methyl-2-(6-methylpyridin-2-yl)-7H-pyrrolo[2,3-d]pyrimidin-4-amine]
  IC50: 0.25 nM

## Cc1c[nH]c2nc(-c3cccc(C(F)(F)F)n3)nc(Nc3ccncc3F)c12 [Example 34, N-(3-fluoropyridin-4-yl)-5-methyl-2-(6-(trifluoromethyl)pyridin-2-yl)-7H-pyrrolo[2,3-d]pyrimidin-4-amine]
  IC50: 4.5 nM

## CC(C)(O)CNCc1c[nH]c2nc(-c3cccc(C(F)F)n3)nc(Nc3ccncc3F)c12 [Example 35, 1-(((2-(6-(difluoromethyl)pyridin-2-yl)-4-((3-fluoropyridin-4-yl)amino)-7H-pyrrolo[2,3-d]pyrimidin-5-yl)methyl)amino)-2-methylpropan-2-ol]
  IC50: 1.4 nM

## CC(=O)Nc1nccc(Nc2nc(-c3cccc(C(F)(F)F)n3)nc3[nH]ccc23)c1F [Example 36, N-[3-fluoro-4-({2-[6-(trifluoromethyl)pyridin-2-yl]-7H-pyrrolo[2,3-d]pyrimidin-4-yl}amino)pyridin-2-yl]acetamide]
  IC50: 1.7 nM

## Cc1cnccc1Nc1nc(-c2cccc(C(F)(F)F)n2)nc2[nH]ccc12 [Example 37, 3-methyl-N-{2-[6-(trifluoromethyl)pyridin-2-yl]-7H-pyrrolo[2,3-d]pyrimidin-4-yl}pyridin-4-amine]
  IC50: 0.87 nM

## CN(c1ccncc1)c1nc(-c2cccc(C(F)(F)F)n2)nc2[nH]ccc12 [Example 38, N-methyl-N-{2-[6-(trifluoromethyl)pyridin-2-yl]-7H-pyrrolo[2,3-d]pyrimidin-4-yl}pyridin-4-amine]
  IC50: 0.59 nM

## FC(F)(F)c1cccc(-c2nc(Nc3ccncc3C(F)(F)F)c3cc[nH]c3n2)n1 [Example 39, 3-(trifluoromethyl)-N-{2-[6-(trifluoromethyl)pyridin-2-yl]-7H-pyrrolo[2,3-d]pyrimidin-4-yl}pyridin-4-amine]
  IC50: 0.64 nM

## FC(F)(F)c1cccc(-c2nc(Nc3ccncc3Cl)c3cc[nH]c3n2)n1 [Example 40, 3-chloro-N-{2-[6-(trifluoromethyl)pyridin-2-yl]-7H-pyrrolo[2,3-d]pyrimidin-4-yl}pyridin-4-amine]
  IC50: 0.6 nM

## O=C(Nc1cc(Nc2nc(-c3cccc(C(F)(F)F)n3)nc3[nH]ccc23)ccn1)C1CC1 [Example 41, N-[4-({2-[6-(trifluoromethyl)pyridin-2-yl]-7H-pyrrolo[2,3-d]pyrimidin-4-yl}amino)pyridin-2-yl]cyclopropanecarboxamide]
  IC50: 0.87 nM

## COc1cnccc1Nc1nc(-c2cccc(C(F)(F)F)n2)nc2[nH]ccc12 [Example 42, 3-methoxy-N-{2-[6-(trifluoromethyl)pyridin-2-yl]-7H-pyrrolo[2,3-d]pyrimidin-4-yl}pyridin-4-amine]
  IC50: 1.7 nM

## CC(=O)Nc1cc(Nc2nc(-c3cccc(C(F)F)n3)nc3[nH]cc(CNCC(C)(C)O)c23)c(F)cn1 [Example 44, N-[4-({2-[6-(difluoromethyl)pyridin-2-yl]-5-{[(2-hydroxy-2-methylpropyl)amino]methyl}-7H-pyrrolo[2,3-d]pyrimidin-4-yl}amino)-5-fluoropyridin-2-yl]acetamide]
  IC50: 2.6 nM

## Cc1cnccc1Nc1nc(-c2ccc(F)c(C)n2)nc2[nH]ccc12 [Example 45, N-[2-(5-fluoro-6-methylpyridin-2-yl)-7H-pyrrolo[2,3-d]pyrimidin-4-yl]-3-methylpyridin-4-amine]
  IC50: 1 nM

## COc1cnccc1Nc1nc(-c2ccc(F)c(C)n2)nc2[nH]ccc12 [Example 46, N-[2-(5-fluoro-6-methylpyridin-2-yl)-7H-pyrrolo[2,3-d]pyrimidin-4-yl]-3-methoxypyridin-4-amine]
  IC50: 0.79 nM

## Cc1nc(-c2nc(Nc3ccnc(NC(=O)C4CC4)c3)c3cc[nH]c3n2)ccc1F [Example 47, N-(4-{[2-(5-fluoro-6-methylpyridin-2-yl)-7H-pyrrolo[2,3-d]pyrimidin-4-yl]amino}pyridin-2-yl)cyclopropanecarboxamide]
  IC50: 1.4 nM

## CN(c1ccncc1)c1nc(-c2cccc(NS(C)(=O)=O)n2)nc2[nH]ccc12 [Example 48, N-(6-{4-[methyl(pyridin-4-yl)amino]-7H-pyrrolo[2,3-d]pyrimidin-2-yl}pyridin-2-yl)methanesulfonamide]
  IC50: 4.3 nM

## CS(=O)(=O)Nc1cccc(-c2nc(Nc3ccncc3Cl)c3cc[nH]c3n2)n1 [Example 49, N-(6-{4-[(3-chloropyridin-4-yl)amino]-7H-pyrrolo[2,3-d]pyrimidin-2-yl}pyridin-2-yl)methanesulfonamide]
  IC50: 2.2 nM
